Assay results published in patent US4264736A, “Antibiotic 890A10” (Merck & Co., Inc., priority 1979, dated 1981).
Counter-ions that a name gives are not always drawn.

Legend:
[1] = tested on: Vibrio percolans ATCC 8461; assay: 890 Assay Units, agar plate disc-diffusion, cephaloridine standard; type: cell-based
Method: II. Assay Procedure for Determining "890 Assay Units"
A conventional agar plate disc-diffusion method is employed using Vibrio percolans ATCC 8461 as tester organism. Cephaloridine is employed as a standard. Plates containing Vibrio percolans ATCC 8461 are prepared as follows. A culture of Vibrio percolans ATCC 8461 is incubated in nutrient broth-yeast extract overnight on a rotary shaker at 28° C. and then diluted to a density of 60% transmittance at 660 nm. A 33.2 ml. portion of this diluted culture is added to 1 liter of a medium composed of nutrient agar plus 0.2% yeast extract maintained at 46° C. The inoculated agar-containing medium is poured into 100×15 mn. plastic-petri dishes, 10 ml. per dish, chilled, and maintained at 2°-4° C. for up to 5 days before use.
The concentration of cephaloridine which is equivalent to 1 unit/ml. of 890A1 is determined by assay on plates prepared as above, but containing 5 ml. of inoculated medium per plate, as follows. Four concentrations of cephaloridine constitute the standard--3.12, 6.25, 12.5 and 25 mcg per ml. with the 12.5 mcg per ml. as a reference solution. The zone diameters on a 5 ml. plate for the standard are as follows:
A unit is defined as the amount of antibiotic per ml. producing a 25 mm. zone of inhibition on a 5 ml. plate as described in section I above. Therefore, in this assay a concentration of 12.5 mcg per ml. of cephaloridine is considered equivalent to 1 unit of 890A1 per ml. Since the slope of the line for cephaloridine is 4.0 calculations of the potency of a sample are made using a slope of 4.0

[2] = Hydroxylamine reaction (A300 decrease); type: physicochemical
Description: The disodium salt of antibiotic 890A10 has an absorption maximum at 299 nm and a minimum at 243 nm at neutral pH in water. The E% at 300 nm of the most highly purified preparation of disodium salt is 214. The ratio A300 /A250 is 3.33 for the most purified sample, and the ratio A300 /A220 is 2.05. […] More than 94% of the absorption at 300 nm can be extinguished by reaction with hydroxylamine at neutral pH. The absorbance at 250 nm also decreases upon reaction with hydroxylamine, and the ratio of the absorbance decrease at 250 nm to the decrease at 300 nm, is approximately 0.16. […]
Antibiotic 890A10 reacts with hydroxylamine and produces a substance with greatly diminished absorbance at 300 nm. This provides the basis for a quantitative assay of the antibiotic 890A10.
The solution to be assayed is brought to 0.05 M in potassium phosphate, pH 7.4 by adding 1/20th volume of a solution containing 0.8 M K2 HPO4 and 0.2 M KH2 PO4 . Then one-hundredth volume of 1 M hydroxylamine hydrochloride is added, and the absorbance at 300 nm is measured at intervals of one-half to two minutes. […] First-order kinetics are assumed and a half-life is estimated from the absorbance decrease during the first ten minutes. From this half-life, the time is estimated beyond which no further absorbance decrease should be observed and observations are continued beyond that time. […]

In the case of `O=C(Cc1cccs1)N[C@@H]1C(=O)N2C(C(=O)[O-])=C(C[n+]3ccccc3)CS[C@H]12` [cephaloridine], the “concentration equivalent to 1 unit of 890A1 per ml” value ([1]; 25 mm zone of inhibition on a 5 ml plate) is reported as 12.5 mcg per ml, the zone of inhibition at 3.12 µg/mL ([1]; Comamonas terrigena, ATCC8461, 3.12 mcg/ml, 5 ml plate, read-out: Zone Diameter) is reported as 16.8 mm and the zone of inhibition at 6.25 µg/mL ([1]; Comamonas terrigena, ATCC8461, 6.25 mcg/ml, 5 ml plate, read-out: Zone Diameter) is reported as 22.3 mm. For the same molecule, the zone of inhibition at 12.5 µg/mL ([1]; Comamonas terrigena, ATCC8461, 12.5 mcg/ml (reference solution), 5 ml plate, read-out: Zone Diameter) was 25 mm and the zone of inhibition at 25 µg/mL ([1]; Comamonas terrigena, ATCC8461, 25 mcg/ml, 5 ml plate, read-out: Zone Diameter) was 29.6 mm.

For `CC(=O)NCCSC1=C(C(=O)O)N2C(=O)C(C(C)OS(=O)(=O)O)C2C1` (stereo not shown) [disodium salt of antibiotic 890A10], the “absorption at 300 nm extinguished by reaction with hydroxylamine” value ([2]; neutral pH) was “More than 94%” and the “half-life of reaction with hydroxylamine” value ([2]; room temperature, apparently first order, A300 decrease, pH 7.4) was 23 to 60 s.
